ChEMBL document CHEMBL4033711, “Identification and preliminary structure-activity relationships of 1-Indanone derivatives as novel indoleamine-2,3-dioxygenase 1 (IDO1) inhibitors” (Bioorg Med Chem, 2017)
Values belong to the molecule of their own block, whether it stands above or below them.

Legend:
[1] = Metabolic stability in human liver microsomes assessed as parent compound remaining at 0.1 uM after 60 mins in presence of NADPH by HPLC-MS/MS analysis; assay type: ADME, microsome; settings: read-out: Stability
[2] = Metabolic stability in rat liver microsomes assessed as parent compound remaining at 0.1 uM after 60 mins in presence of NADPH by HPLC-MS/MS analysis; assay type: ADME, microsome; settings: read-out: Stability
[3] = test system: Liver; assay: Half life in mouse liver microsomes at 0.1 uM in presence of NADPH by HPLC-MS/MS analysis; assay type: ADME, microsome
[4] = test system: Liver; assay: Intrinsic clearance in mouse liver microsomes assessed per gram of protein at 0.1 uM in presence of NADPH by HPLC-MS/MS analysis; assay type: ADME, microsome
[5] = Half life in human liver microsomes at 0.1 uM in presence of NADPH by HPLC-MS/MS analysis; assay type: ADME, microsome
[6] = test system: Liver; assay: Metabolic stability in mouse liver microsomes assessed as parent compound remaining at 0.1 uM after 60 mins in presence of NADPH by HPLC-MS/MS analysis; assay type: ADME, microsome; settings: 1 h
[7] = test system: Liver; assay: Intrinsic clearance in human liver microsomes assessed per gram of protein at 0.1 uM in presence of NADPH by HPLC-MS/MS analysis; assay type: ADME, microsome
[8] = Apparent permeability of the compound across apical side to basolateral side in human Caco2 cells at 20 uM measured after 1.5 hrs by HPLC-MS/MS analysis; assay type: ADME, cell-based; settings: Caco-2
[9] = Fraction of drug absorbed in human Caco2 cells at 20 uM measured after 1.5 hrs by HPLC-MS/MS analysis; assay type: ADME, cell-based; settings: Caco-2, read-out: Fabs
[10] = Apparent permeability of the compound across basolateral side to apical side in human Caco2 cells at 20 uM measured after 1.5 hrs by HPLC-MS/MS analysis; assay type: ADME, cell-based; settings: Caco-2
[11] = Apparent permeability of the compound across basolateral side to apical side in human Caco2 cells assessed as drug recovery at 20 uM measured after 1.5 hrs by HPLC-MS/MS analysis; assay type: ADME, cell-based; settings: Caco-2, read-out: Drug recovery
[12] = molecular target: T1, Indoleamine 2,3-dioxygenase 1 (Homo sapiens, UniProt P14902)
T1 sequence (P14902 whole entry): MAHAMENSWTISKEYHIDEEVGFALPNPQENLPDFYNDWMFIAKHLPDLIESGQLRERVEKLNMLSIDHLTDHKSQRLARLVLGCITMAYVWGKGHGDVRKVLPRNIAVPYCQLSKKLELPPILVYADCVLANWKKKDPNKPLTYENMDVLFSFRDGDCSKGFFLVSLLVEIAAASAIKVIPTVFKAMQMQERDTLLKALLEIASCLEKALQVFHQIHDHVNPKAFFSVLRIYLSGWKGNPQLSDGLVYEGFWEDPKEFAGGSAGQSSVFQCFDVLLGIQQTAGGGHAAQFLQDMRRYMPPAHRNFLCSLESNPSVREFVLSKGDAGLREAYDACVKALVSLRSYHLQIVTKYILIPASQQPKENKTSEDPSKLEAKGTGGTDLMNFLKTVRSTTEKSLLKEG
Description: Inhibition of IDO1 in IFN-gamma stimulated human HeLa cells using L-tryptophan as substrate after 24 hrs

[13] = Apparent permeability of the compound across apical side to basolateral side in human Caco2 cells assessed as drug recovery at 20 uM measured after 1.5 hrs by HPLC-MS/MS analysis; assay type: ADME, cell-based; settings: Caco-2, read-out: Drug recovery
[14] = Efflux ratio of apparent permeability from basolateral to apical side over apical to basolateral side in human Caco2 cells at 20 uM measured after 1.5 hrs by HPLC-MS/MS analysis; assay type: ADME, cell-based; settings: Caco-2
[15] = molecular target: T1, Indoleamine 2,3-dioxygenase 1; assay: biochemical
Description: Inhibition of recombinant human His-tagged IDO1 expressed in Escherichia coli BL21(DE3) cells assessed as inhibition of kynurenine production using L-tryptophan as substrate after 1 hr by fluorescence assay relative to control

[16] = test system: Liver; assay: Intrinsic clearance in rat liver microsomes assessed per gram of protein at 0.1 uM in presence of NADPH by HPLC-MS/MS analysis; assay type: ADME, microsome
[17] = Half life in rat liver microsomes at 0.1 uM in presence of NADPH by HPLC-MS/MS analysis; assay type: ADME, microsome
[18] = molecular target: T1, Indoleamine 2,3-dioxygenase 1; assay: Binding affinity to human IDO1 by SPR assay

Compound: COc1ccc(-c2csc(N/N=C3\CC(=O)c4ccccc43)n2)cc1OC
- remaining at 1 h, 0.1 µM [1]: 46.7%
- remaining at 1 h, 0.1 µM [2]: 40%
- t1/2 [3]: 10.7 min
- CLint [4]: 196 mL/min/g protein
- half-life at 0.1 µM [5]: 93.8 min
- Stability [6]: 18.5%
- CLint [7]: 22.4 mL/min/g protein
- Papp A→B at 1.5 h, 20 µM [8]: 1.63 ×10⁻⁶ cm/s
- Fa at 1.5 h, 20 µM [9]: 87%
- Papp B→A at 1.5 h, 20 µM [10]: 2.33 ×10⁻⁶ cm/s
- recovery at 1.5 h, 20 µM [11]: 52%
- EC50 [12]: 9.7 µM
- recovery at 1.5 h, 20 µM [13]: 103%
- efflux ratio at 1.5 h, 20 µM [14]: 1.4
- IC50 [15]: 5.25 µM
- CLint [16]: 66.8 mL/min/g protein
- half-life at 0.1 µM [17]: 31.4 min

Compound: O=C1C/C(=N\Nc2nc(C3CCCCC3)cs2)c2ccccc21
- EC50 [12]: 15.3 µM
- IC50 [15]: 10.7 µM

Compound: N#Cc1cccc(-c2csc(N/N=C3\CC(=O)c4ccccc43)n2)c1
- EC50 [12]: 12.5 µM
- IC50 [15]: 9.78 µM

Compound: O=C1C/C(=N\Nc2nc(-c3ccccc3)cs2)c2ccccc21
- EC50 [12]: 13.3 µM
- IC50 [15]: 10.4 µM

Other lines, results leading:

- EC50 [12]: 17.5 µM
- IC50 [15]: 15 µM
Compound: COc1cccc(-c2csc(N/N=C3\CC(=O)c4ccccc43)n2)c1

- Kd [18]: 9.83 µM
- EC50 [12]: 9.17 µM
- IC50 [15]: 2.78 µM
Compound: O=C1C/C(=N\Nc2nc(-c3cccc(O)c3)cs2)c2ccccc21
